# Reference: ChEMBL document CHEMBL1139192, “Novel bis(indolyl)maleimide pyridinophanes that are potent, selective inhibitors of glycogen synthase kinase-3” (Bioorg Med Chem Lett, 2007)
# What was measured:
# [1] = biological target: Rho-associated protein kinase 2 (Rattus norvegicus) (UniProt Q62868); assay: Residual activity of rat ROCK2 at 1 uM relative to control
# [2] = biological target: Proto-oncogene tyrosine-protein kinase Src (Homo sapiens) (UniProt P12931); assay: Residual activity of human cSRC at 1 uM relative to control
# Sequence of Proto-oncogene tyrosine-protein kinase Src (Homo sapiens) (P12931 2-536 limits assumed): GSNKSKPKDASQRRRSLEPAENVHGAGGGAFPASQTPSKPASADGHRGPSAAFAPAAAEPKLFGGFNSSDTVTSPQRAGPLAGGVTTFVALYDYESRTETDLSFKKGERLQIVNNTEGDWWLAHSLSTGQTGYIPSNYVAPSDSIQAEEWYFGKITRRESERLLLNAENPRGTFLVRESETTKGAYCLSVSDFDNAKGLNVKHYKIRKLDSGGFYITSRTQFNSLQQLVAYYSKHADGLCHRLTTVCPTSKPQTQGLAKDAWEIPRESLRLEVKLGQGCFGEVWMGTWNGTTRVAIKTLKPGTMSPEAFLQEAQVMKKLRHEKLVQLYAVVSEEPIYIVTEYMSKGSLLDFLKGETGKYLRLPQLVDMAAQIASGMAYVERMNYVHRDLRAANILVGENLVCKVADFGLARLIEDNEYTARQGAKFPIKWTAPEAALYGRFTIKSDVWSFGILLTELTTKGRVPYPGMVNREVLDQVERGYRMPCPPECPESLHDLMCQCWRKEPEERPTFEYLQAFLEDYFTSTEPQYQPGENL
# [3] = biological target: T1, Calcium/calmodulin-dependent protein kinase type IV (Homo sapiens) (UniProt Q16566); assay: Residual activity of human CaMK4 at 1 uM relative to control
# T1 sequence (whole entry): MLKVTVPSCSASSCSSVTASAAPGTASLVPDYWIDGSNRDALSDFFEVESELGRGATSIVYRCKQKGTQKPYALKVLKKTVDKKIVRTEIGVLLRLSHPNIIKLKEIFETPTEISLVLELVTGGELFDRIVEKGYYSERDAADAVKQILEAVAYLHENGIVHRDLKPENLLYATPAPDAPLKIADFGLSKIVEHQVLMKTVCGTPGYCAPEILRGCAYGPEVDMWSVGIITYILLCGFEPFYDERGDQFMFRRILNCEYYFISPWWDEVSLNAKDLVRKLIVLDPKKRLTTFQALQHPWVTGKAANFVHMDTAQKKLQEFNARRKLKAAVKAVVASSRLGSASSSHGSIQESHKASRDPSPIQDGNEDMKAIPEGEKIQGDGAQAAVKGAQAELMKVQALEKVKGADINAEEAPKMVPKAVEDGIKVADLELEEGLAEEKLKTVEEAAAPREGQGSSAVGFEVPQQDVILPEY
# [4] = biological target: T2, Serine/threonine-protein kinase D1 (Homo sapiens) (UniProt Q15139); assay: Residual activity of human PKCmu at 1 uM relative to control
# T2 sequence (whole entry): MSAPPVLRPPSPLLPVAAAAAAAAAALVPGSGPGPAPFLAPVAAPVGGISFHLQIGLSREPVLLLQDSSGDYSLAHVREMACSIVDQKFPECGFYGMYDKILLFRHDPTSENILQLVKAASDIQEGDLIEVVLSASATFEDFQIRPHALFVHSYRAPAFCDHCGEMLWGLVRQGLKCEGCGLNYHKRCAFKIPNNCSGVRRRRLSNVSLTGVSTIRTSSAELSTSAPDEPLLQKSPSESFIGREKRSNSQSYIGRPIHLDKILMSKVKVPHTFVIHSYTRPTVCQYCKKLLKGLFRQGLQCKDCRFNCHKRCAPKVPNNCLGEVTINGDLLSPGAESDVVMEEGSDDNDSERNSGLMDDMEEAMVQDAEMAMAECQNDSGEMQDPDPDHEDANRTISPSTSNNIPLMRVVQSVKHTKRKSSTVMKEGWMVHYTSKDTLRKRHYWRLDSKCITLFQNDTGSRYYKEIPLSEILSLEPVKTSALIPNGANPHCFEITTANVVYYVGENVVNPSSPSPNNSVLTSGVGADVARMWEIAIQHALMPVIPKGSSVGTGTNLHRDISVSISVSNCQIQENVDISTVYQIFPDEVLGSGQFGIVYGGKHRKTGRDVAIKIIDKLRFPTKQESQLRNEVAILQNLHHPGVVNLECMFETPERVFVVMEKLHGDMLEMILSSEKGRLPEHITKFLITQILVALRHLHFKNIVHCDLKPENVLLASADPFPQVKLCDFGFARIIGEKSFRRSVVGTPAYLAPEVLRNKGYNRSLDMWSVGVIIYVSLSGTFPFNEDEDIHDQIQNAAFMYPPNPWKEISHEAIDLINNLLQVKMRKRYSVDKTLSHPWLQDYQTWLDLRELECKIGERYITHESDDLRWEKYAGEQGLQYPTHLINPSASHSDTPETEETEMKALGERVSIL
# [5] = biological target: T3, Aurora kinase A (Homo sapiens) (UniProt O14965); assay: Residual activity of human Aurora A at 1 uM relative to control
# T3 sequence (whole entry): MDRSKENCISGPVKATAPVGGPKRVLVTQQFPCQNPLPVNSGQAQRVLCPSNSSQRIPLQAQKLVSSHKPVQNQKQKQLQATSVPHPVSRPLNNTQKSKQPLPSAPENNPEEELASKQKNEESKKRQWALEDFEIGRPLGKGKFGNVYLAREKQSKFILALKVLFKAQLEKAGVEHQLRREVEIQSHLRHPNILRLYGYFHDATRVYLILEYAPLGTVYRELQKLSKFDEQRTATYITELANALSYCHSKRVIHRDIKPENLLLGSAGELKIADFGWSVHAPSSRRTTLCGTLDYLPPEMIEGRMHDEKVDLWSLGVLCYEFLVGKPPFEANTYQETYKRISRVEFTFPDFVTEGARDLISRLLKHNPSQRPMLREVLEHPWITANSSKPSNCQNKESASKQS
# [6] = biological target: Protein kinase C beta type (Homo sapiens, UniProt P05771); assay: Residual activity of human PKCbeta2 at 1 uM relative to control
# Sequence of Protein kinase C beta type (P05771 2-671 limits assumed): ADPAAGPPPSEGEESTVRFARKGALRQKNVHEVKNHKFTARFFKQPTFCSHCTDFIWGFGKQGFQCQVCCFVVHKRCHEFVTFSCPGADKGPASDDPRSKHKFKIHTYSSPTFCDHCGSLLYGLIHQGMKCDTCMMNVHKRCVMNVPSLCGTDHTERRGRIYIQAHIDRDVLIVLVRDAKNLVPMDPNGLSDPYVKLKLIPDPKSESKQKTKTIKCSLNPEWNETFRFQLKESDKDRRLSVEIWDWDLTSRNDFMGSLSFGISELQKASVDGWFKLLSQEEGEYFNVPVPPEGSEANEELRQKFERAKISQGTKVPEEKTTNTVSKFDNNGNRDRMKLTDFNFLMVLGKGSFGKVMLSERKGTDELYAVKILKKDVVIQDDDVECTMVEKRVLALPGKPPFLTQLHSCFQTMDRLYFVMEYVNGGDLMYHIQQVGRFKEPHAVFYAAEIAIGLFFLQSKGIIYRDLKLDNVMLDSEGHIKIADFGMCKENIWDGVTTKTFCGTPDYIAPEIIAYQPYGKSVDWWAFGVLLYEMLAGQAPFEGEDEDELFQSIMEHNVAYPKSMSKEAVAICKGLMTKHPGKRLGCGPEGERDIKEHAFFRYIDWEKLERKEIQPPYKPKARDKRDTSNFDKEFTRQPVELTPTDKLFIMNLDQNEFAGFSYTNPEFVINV
# [7] = biological target: ALK tyrosine kinase receptor (Homo sapiens) (UniProt Q9UM73); assay: Inhibition of ALK at 1 uM relative to control; values are per cent of control
# Sequence of ALK tyrosine kinase receptor (Homo sapiens) (Q9UM73 19-1620 limits assumed): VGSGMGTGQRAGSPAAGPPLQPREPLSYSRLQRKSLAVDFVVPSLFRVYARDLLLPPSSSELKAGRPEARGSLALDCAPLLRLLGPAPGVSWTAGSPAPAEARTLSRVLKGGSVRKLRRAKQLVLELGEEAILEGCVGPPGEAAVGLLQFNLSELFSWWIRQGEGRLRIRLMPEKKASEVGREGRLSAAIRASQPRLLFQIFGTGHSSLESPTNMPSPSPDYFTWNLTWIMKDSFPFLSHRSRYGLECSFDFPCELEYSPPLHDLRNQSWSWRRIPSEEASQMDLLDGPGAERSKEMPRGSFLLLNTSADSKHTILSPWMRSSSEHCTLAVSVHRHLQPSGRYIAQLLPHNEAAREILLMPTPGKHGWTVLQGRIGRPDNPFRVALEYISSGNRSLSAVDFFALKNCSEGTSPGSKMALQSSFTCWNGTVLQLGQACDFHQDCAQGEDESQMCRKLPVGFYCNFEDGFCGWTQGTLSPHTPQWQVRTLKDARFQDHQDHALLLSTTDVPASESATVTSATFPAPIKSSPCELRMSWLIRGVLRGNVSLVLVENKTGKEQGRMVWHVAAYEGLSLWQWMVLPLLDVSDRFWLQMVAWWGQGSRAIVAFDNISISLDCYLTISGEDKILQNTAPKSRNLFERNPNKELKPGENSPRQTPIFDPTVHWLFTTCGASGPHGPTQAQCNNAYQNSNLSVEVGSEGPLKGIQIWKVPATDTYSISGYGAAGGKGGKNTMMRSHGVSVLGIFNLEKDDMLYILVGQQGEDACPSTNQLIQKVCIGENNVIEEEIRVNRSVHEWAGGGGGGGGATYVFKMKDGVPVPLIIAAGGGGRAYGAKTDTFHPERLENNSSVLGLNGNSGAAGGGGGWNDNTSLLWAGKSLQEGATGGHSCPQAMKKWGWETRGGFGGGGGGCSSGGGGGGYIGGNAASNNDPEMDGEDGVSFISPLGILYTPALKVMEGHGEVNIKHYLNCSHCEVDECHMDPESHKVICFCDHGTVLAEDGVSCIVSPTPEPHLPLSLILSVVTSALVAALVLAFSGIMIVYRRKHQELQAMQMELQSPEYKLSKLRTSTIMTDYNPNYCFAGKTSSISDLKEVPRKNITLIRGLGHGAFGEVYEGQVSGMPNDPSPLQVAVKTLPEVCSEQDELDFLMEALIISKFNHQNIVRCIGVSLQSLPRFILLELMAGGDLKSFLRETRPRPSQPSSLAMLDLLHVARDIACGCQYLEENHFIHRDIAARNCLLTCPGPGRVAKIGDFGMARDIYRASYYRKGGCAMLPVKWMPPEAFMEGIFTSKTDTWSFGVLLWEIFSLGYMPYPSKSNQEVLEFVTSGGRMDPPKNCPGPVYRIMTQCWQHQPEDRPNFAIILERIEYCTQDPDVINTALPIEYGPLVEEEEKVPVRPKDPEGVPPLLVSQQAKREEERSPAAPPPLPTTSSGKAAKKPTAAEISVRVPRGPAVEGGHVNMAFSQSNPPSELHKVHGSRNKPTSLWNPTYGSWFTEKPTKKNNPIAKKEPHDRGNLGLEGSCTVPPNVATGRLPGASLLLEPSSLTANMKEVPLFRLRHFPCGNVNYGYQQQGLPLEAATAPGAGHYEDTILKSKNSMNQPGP
# [8] = biological target: Tyrosine-protein kinase Fyn (Homo sapiens) (UniProt P06241); assay: Inhibition of human Fyn at 1 uM relative to control; values are per cent of control
# Sequence of Tyrosine-protein kinase Fyn (Homo sapiens) (P06241 2-537 limits assumed): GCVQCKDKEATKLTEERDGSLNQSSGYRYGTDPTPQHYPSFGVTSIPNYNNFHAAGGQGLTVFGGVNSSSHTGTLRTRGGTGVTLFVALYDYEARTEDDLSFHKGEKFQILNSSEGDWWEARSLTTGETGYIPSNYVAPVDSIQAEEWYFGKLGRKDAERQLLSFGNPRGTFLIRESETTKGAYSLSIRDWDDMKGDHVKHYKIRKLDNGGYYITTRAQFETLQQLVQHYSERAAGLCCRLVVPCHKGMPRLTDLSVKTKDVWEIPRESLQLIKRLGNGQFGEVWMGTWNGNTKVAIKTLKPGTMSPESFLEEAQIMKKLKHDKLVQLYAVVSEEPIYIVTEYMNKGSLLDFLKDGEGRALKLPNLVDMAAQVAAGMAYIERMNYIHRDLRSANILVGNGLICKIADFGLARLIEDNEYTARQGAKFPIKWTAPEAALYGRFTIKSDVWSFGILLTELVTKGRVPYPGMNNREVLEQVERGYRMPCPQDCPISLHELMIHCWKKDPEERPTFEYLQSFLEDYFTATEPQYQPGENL
# [9] = biological target: Ribosomal protein S6 kinase alpha-1 (Homo sapiens, UniProt Q15418); assay: Inhibition of human Rsk1 at 1 uM relative to control; values are per cent of control
# Homo sapiens = species: Homo sapiens; assay: Inhibition of human MAPK2 at 1 uM relative to control; values are per cent of control
# [10] = biological target: T4, Dual specificity mitogen-activated protein kinase kinase 7 (Homo sapiens) (UniProt O14733); assay: Inhibition of human MKK7-beta at 1 uM relative to control; values are per cent of control
# T4 sequence (whole entry): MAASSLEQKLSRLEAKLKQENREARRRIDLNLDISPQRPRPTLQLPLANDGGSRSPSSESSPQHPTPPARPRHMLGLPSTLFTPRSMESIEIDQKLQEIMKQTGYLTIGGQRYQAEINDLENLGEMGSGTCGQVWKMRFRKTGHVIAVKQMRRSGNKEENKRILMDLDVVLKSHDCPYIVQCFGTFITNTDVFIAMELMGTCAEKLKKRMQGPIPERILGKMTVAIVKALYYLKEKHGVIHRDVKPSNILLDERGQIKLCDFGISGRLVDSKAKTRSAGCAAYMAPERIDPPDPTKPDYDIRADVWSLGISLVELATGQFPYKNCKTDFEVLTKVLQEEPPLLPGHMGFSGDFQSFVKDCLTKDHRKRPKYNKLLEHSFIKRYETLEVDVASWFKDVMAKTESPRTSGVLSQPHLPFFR
# Sequence of Rho-associated protein kinase 2 (Rattus norvegicus) (Q62868 whole entry, looked up): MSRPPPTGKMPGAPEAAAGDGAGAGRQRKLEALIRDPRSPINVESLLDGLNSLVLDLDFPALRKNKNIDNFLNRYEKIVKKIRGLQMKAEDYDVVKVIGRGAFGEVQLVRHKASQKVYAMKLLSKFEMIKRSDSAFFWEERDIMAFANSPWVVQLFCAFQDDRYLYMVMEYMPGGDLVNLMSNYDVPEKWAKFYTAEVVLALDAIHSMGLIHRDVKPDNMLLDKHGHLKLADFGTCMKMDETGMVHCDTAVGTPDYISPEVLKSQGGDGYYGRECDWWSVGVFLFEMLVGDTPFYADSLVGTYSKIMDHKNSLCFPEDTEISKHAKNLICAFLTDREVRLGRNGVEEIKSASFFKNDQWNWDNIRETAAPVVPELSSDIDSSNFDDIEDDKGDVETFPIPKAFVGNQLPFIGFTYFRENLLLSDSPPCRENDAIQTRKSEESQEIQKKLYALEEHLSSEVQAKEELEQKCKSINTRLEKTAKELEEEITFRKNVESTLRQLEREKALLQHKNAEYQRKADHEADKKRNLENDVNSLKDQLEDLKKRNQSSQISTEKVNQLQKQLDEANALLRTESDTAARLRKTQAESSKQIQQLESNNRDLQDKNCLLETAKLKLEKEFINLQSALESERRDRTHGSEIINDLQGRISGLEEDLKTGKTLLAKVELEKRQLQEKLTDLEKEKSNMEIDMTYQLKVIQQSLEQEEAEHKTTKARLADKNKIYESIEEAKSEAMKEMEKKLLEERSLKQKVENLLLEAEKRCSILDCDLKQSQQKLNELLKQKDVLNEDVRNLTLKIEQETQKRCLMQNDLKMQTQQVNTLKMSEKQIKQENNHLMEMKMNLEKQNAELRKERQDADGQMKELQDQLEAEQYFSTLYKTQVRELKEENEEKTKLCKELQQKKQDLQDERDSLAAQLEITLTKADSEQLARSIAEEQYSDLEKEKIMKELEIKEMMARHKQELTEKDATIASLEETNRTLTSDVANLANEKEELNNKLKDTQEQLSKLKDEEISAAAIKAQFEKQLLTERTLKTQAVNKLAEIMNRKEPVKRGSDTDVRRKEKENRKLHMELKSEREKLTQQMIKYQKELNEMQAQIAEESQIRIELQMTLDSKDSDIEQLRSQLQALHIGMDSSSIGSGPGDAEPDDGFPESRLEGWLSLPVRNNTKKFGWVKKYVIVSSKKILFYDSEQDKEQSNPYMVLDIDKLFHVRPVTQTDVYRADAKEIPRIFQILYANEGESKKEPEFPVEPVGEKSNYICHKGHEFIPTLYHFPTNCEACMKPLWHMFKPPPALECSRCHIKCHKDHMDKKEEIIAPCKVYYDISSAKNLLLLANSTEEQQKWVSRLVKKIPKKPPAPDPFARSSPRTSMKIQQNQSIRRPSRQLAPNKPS
residual activity [1] [%],residual activity [2] [%],residual activity [3] [%],residual activity [4] [%],residual activity [5] [%],residual activity [6] [%],residual activity [7] [%],residual activity [8] [%],residual activity [9] [%],residual activity (Homo sapiens) [%],residual activity [10] [%],SMILES
101,81,92,110,109,64,103,103,39,102,88,CN(C)c1nc2ccc1CCCn1cc(c3ccccc31)C1=C(C(=O)NC1=O)c1cn(c3ccccc13)CC2
92,105,113,118,111,68,55,106,15,104,78,CN(C)c1cc2cc(n1)CCCn1cc(c3ccccc31)C1=C(C(=O)NC1=O)c1cn(c3ccccc13)CCC2
83,97,112,118,111,74,58,106,15,92,97,O=C1NC(=O)C2=C1c1cn(c3ccccc13)CCCc1cc(nc(N3CCCC3)c1)CCCn1cc2c2ccccc21
91,113,99,113,106,77,74,103,85,88,85,O=C1NC(=O)C2=C1c1cn(c3ccccc13)CCCc1ccc(c(N3CCCC3)n1)CCCn1cc2c2ccccc21
